Tested on: HEK293 NOD2/MDP-stimulated NF-kB reporter inhibition
Test: PubChem AID 2334

O=C(Nc1nc2c(F)cc(F)cc2s1)c1ccc([N+](=O)[O-])o1
IC50: 15.6 µM
